The record followed here is patent US12084436B2, “Heterocyclic compound” (Takeda Pharmaceutical Company Limited, priority 2019, dated 2024).

This assay concerns the target T1, HDAC6 enzyme (Homo sapiens, UniProt Q9UBN7).
T1 construct: prepared by transducing full length HDAC6 gene into Sf-9 insect cells; GST; purchased SignalChem; host or cells: Sf-9 insect cells
T1 sequence (Q9UBN7 1-1215): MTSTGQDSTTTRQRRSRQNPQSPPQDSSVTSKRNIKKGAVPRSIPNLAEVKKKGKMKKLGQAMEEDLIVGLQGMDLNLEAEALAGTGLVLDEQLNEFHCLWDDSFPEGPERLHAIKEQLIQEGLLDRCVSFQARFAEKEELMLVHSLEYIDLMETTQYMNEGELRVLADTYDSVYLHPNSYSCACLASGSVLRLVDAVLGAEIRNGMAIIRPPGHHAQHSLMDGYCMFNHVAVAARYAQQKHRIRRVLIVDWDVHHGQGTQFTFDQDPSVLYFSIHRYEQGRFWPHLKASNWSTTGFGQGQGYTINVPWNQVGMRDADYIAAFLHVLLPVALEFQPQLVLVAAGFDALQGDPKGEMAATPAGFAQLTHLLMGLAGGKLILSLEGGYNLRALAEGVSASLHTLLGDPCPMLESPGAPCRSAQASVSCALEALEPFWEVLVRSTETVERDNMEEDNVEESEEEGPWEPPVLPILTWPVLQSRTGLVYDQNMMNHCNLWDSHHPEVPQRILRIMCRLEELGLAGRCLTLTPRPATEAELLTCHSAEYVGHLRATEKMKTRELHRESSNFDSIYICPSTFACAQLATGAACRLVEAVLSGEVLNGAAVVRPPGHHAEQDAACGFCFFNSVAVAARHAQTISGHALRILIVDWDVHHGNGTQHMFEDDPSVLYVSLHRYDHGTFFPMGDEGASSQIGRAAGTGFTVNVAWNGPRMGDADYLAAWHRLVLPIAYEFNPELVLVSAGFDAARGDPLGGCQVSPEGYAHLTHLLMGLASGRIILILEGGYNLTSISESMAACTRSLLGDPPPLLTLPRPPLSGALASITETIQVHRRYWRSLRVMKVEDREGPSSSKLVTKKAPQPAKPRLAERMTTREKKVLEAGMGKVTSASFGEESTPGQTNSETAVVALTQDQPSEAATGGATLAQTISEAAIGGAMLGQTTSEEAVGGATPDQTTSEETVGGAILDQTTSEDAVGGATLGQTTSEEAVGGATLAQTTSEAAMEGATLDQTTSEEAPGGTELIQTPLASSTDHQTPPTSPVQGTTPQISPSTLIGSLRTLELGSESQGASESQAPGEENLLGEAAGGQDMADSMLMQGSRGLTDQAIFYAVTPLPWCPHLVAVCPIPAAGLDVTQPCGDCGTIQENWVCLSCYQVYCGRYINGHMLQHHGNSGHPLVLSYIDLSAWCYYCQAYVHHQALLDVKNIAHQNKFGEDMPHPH
Put plainly: HDAC6 enzyme inhibitory assay (HDAC-Glo I/II Assay kit, luminescence). In kind it is biochemical. The settings on record: 10 μM test compound, wells without enzyme = 100% inhibition; for inhibition at 10 µM: read-out: HDAC6 inhibitory rate (%) (10 μM). The procedure, abridged:
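Full-length human HDAC6, GST-purified from Sf-9 cells, was preincubated with compound for 60 min at room temperature in Tris-HCl pH 7.5 buffer with glutathione and Tween-20. Substrate-developer was then added, and luminescence was read after 20 min at room temperature. Inhibition was expressed relative to no-enzyme wells, taken as 100% inhibition.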

For `O=C1c2cc(-c3nnc(C(F)F)o3)ccc2CN1N(CCC1CCOCC1)Cc1ccc(F)cc1` [Example 21c, 6-[5-(difluoromethyl)-1,3,4-oxadiazol-2-yl]-2-{[(4-fluorophenyl)methyl][2-(oxan-4-yl)ethyl]amino}-2,3-dihydro-1H-isoindol-1-one], the inhibition at 10 µM was determined as 99%.
In the case of `O=C(Cn1ccnc1-c1cc(F)cc(-c2nnc(C(F)F)o2)c1)N1CCCC1` [Example 33a, 2-(2-{3-[5-(difluoromethyl)-1,3,4-oxadiazol-2-yl]-5-fluorophenyl}-1H-imidazol-1-yl)-1-(pyrrolidin-1-yl)ethan-1-one], the inhibition at 10 µM was 86%.
On the same count and under the same terms, for `Cc1cccc(Cn2ccnc2-c2cc(-c3nnc(C(F)F)o3)ccn2)c1` [Example 83a, 4-[5-(difluoromethyl)-1,3,4-oxadiazol-2-yl]-2-{1-[(3-methylphenyl)methyl]-1H-imidazol-2-yl}pyridine] the value was 100%; for `FC(F)c1nnc(-c2ccnc(-n3ncc4c3C(c3ccccc3)CCC4)c2)o1` (centres unmarked) [Example 77a], 99%.
Same read-out and setting: in the case of `Fc1cc(-c2nnc(C(F)F)o2)cc(-c2nccn2Cc2cccnn2)c1` [Example 26a] it was 96%.
In the case of `CN1C(=O)c2cc(-c3nnc(C(F)F)o3)ccc2OC1(C)c1ccc(C#N)cc1` (single isomer, unassigned; isomer 1) [Example 36b, 4-{6-[5-(difluoromethyl)-1,3,4-oxadiazol-2-yl]-2,3-dimethyl-4-oxo-3,4-dihydro-2H-1,3-benzoxazin-2-yl}benzonitrile (optical isomer 1)], the “HDAC6 inhibitory rate (%) (10 μM)” value amounted to 62%.
For `CN(Cc1cc(O)ccc1F)N1Cc2ccc(-c3nnc(C(F)F)o3)cc2C1=O` [Example 49c, 6-[5-(difluoromethyl)-1,3,4-oxadiazol-2-yl]-2-{[(2-fluoro-5-hydroxyphenyl)methyl](methyl)amino}-2,3-dihydro-1H-isoindol-1-one], the inhibition at 10 µM amounted to 100%.
On the same count and under the same terms, for `Cc1cc(Cn2ccnc2-c2cc(F)cc(-c3nnc(C(F)F)o3)c2)on1` [Example 62a, 2-(difluoromethyl)-5-(3-fluoro-5-{1-[(3-methyl-1,2-oxazol-5-yl)methyl]-1H-imidazol-2-yl}phenyl)-1,3,4-oxadiazole] the value was 99%; for `O=C1c2cc(-c3nnc(C(F)F)o3)ccc2CN1NCC1CCOCC1` [Example 17c, 6-[5-(difluoromethyl)-1,3,4-oxadiazol-2-yl]-2-{[(oxan-4-yl)methyl]amino}-2,3-dihydro-1H-isoindol-1-one], 98%.
`CN1C(=O)c2cc(-c3nnc(C(F)F)o3)cnc2CC1(C)c1ccc(F)cc1` (single isomer, unassigned) [Example 1b, 3-[5-(difluoromethyl)-1,3,4-oxadiazol-2-yl]-7-(4-fluorophenyl)-6,7-dimethyl-7,8-dihydro-1,6-naphthyridin-5(6H)-one]: the “HDAC6 inhibitory rate (%) (10 μM)” value was found to be 100%.
For the molecule `COCCOC(=O)N(Cc1ccc(F)cc1)N1Cc2ccc(-c3nnc(C(F)F)o3)cc2C1=O` [Example 11c, 2-methoxyethyl {6-[5-(difluoromethyl)-1,3,4-oxadiazol-2-yl]-1-oxo-1,3-dihydro-2H-isoindol-2-yl}[(4-fluorophenyl)methyl]carbamate], the inhibition at 10 µM stood at 99%.
In the case of `O=C1c2cc(-c3nnc(C(F)F)o3)ccc2CN1Nc1c(F)c(F)c(F)c(F)c1F` [Example 32c, 6-[5-(difluoromethyl)-1,3,4-oxadiazol-2-yl]-2-(pentafluoroanilino)-2,3-dihydro-1H-isoindol-1-one], the inhibition at 10 µM is 95%.
The same measure, in the same setting: for `CN1C(=O)c2cc(-c3nnc(C(F)F)o3)ccc2OC1(C)c1ccc(F)c(F)c1` (centres unmarked) [Example 32b, 6-[5-(difluoromethyl)-1,3,4-oxadiazol-2-yl]-2-(3,4-difluorophenyl)-2,3-dimethyl-2,3-dihydro-4H-1,3-benzoxazin-4-one] the value was 100%; for `O=C1c2cc(-c3nnc(C(F)F)o3)ccc2CN1NC1CCCCC1` [Example 29c, 2-(cyclohexylamino)-6-[5-(difluoromethyl)-1,3,4-oxadiazol-2-yl]-2,3-dihydro-1H-isoindol-1-one], 95%.
Regarding `CN1C(=O)c2cc(-c3nnc(C(F)F)o3)cnc2CC1(C)c1ccc(F)c(F)c1` (single isomer, unassigned; isomer 1) [Example 39b, 3-[5-(difluoromethyl)-1,3,4-oxadiazol-2-yl]-7-(3,4-difluorophenyl)-6,7-dimethyl-7,8-dihydro-1,6-naphthyridin-5(6H)-one (optical isomer 1)], the “HDAC6 inhibitory rate (%) (10 μM)” value is 76%.
As to `CN1C(=O)c2cc(-c3nnc(C(F)F)o3)ccc2CN1c1ccc(F)cc1` [Example 10b, 7-[5-(difluoromethyl)-1,3,4-oxadiazol-2-yl]-3-(4-fluorophenyl)-2-methyl-3,4-dihydrophthalazin-1(2H)-one], the inhibition at 10 µM came out at 100%.
`CN(Cc1ccc(F)cc1)N1Cc2ncc(-c3nnc(C(F)F)o3)cc2C1=O` [Example 69c, 3-[5-(difluoromethyl)-1,3,4-oxadiazol-2-yl]-6-{[(4-fluorophenyl)methyl](methyl)amino}-6,7-dihydro-5H-pyrrolo[3,4-b]pyridin-5-one]: the inhibition at 10 µM was found to be 100%.
On the same count and under the same terms, in the case of `CN(Cc1ccc2nccn2c1)N1Cc2ccc(-c3nnc(C(F)F)o3)cc2C1=O` [Example 45c, 6-[5-(difluoromethyl)-1,3,4-oxadiazol-2-yl]-2-{[(imidazo[1,2-a]pyridin-6-yl)methyl](methyl)amino}-2,3-dihydro-1H-isoindol-1-one] it was 99%; in that of `CN1C(=O)c2cc(-c3nnc(C(F)F)o3)ccc2OC1(C)c1ccccc1` (centres unmarked) [Example 4b, 6-[5-(difluoromethyl)-1,3,4-oxadiazol-2-yl]-2,3-dimethyl-2-phenyl-2,3-dihydro-4H-1,3-benzoxazin-4-one], 99%.
The same measure, in the same setting: for `CN1C(=O)c2cc(-c3nnc(C(F)F)o3)ccc2OC1c1ccc(F)cc1` (centres unmarked) [Example 44b, 6-[5-(difluoromethyl)-1,3,4-oxadiazol-2-yl]-2-(4-fluorophenyl)-3-methyl-2,3-dihydro-4H-1,3-benzoxazin-4-one] the value was 100%; for `COCCn1ccnc1-c1cc(F)cc(-c2nnc(C(F)F)o2)c1` [Example 27a], 95%; for `Cc1nn(C)cc1Cn1ccnc1-c1cc(F)cc(-c2nnc(C(F)F)o2)c1` [Example 63a, 2-(difluoromethyl)-5-(3-{1-[(1,3-dimethyl-1H-pyrazol-4-yl)methyl]-1H-imidazol-2-yl}-5-fluorophenyl)-1,3,4-oxadiazole], 97%.
Still for that read-out and setting: in the case of `CN(Cc1ccc(C(F)F)cc1)N1Cc2ccc(-c3nnc(C(F)F)o3)cc2C1=O` [Example 57c, 6-[5-(difluoromethyl)-1,3,4-oxadiazol-2-yl]-2-[{[4-(difluoromethyl)phenyl]methyl} (methyl)amino]-2,3-dihydro-1H-isoindol-1-one] it was 99%.
For the molecule `COC(=O)N(Cc1ccc(F)cc1)N1Cc2ccc(-c3nnc(C(F)F)o3)cc2C1=O` [Example 1c, methyl {6-[5-(difluoromethyl)-1,3,4-oxadiazol-2-yl]-1-oxo-1,3-dihydro-2H-isoindol-2-yl}[(4-fluorophenyl)methyl]carbamate], the inhibition at 10 µM came out at 99%.
The same measure, in the same setting: for `O=C1NN(c2ccc(F)cc2)Cc2ccc(-c3nnc(C(F)F)o3)cc21` [Example 2b, 7-[5-(difluoromethyl)-1,3,4-oxadiazol-2-yl]-3-(4-fluorophenyl)-3,4-dihydrophthalazin-1(2H)-one] the value was 100%.
Still for that read-out and setting: for `CNC(=O)c1ccc(Cn2ccnc2-c2cc(F)cc(-c3nnc(C(F)F)o3)c2)cc1F` [Example 34a, 4-[(2-{3-[5-(difluoromethyl)-1,3,4-oxadiazol-2-yl]-5-fluorophenyl}-1H-imidazol-1-yl)methyl]-2-fluoro-N-methylbenzamide] the value was 98%.
